Values of other authors, collected in US6852335B2, “Folic acid in solid dosage forms” (Shaklee Corporation, priority 1999, dated 2005).

Conditions: 25° C. (The Merck Index, 12th edition)

solubility in water: approximately 1.6 mcg/ml
Compound: Nc1nc2ncc(CNc3ccc(C(=O)N[C@@H](CCC(=O)O)C(=O)O)cc3)nc2c(=O)[nH]1 [Folic acid]
